In PMC5485613, “A novel TRPM8 agonist relieves dry eye discomfort” (BMC Ophthalmology, 2017):
Values joined by “and” are separate entries in the source; they are usually repeats but may differ in a detail not shown here. Identical values can stand only once.

Tests used:
human TRPA1 = biological target: T1, human TRPA1 (Homo sapiens, UniProt O75762); assay: TRPA1 calcium imaging (Fura-2) in transfected KNRK cells; type: cell-based; conditions: 10 μM
T1 construct: expressed in transfected cells; host or cells: KNRK cells (rat kidney), transiently transfected
T1 sequence (O75762 whole entry): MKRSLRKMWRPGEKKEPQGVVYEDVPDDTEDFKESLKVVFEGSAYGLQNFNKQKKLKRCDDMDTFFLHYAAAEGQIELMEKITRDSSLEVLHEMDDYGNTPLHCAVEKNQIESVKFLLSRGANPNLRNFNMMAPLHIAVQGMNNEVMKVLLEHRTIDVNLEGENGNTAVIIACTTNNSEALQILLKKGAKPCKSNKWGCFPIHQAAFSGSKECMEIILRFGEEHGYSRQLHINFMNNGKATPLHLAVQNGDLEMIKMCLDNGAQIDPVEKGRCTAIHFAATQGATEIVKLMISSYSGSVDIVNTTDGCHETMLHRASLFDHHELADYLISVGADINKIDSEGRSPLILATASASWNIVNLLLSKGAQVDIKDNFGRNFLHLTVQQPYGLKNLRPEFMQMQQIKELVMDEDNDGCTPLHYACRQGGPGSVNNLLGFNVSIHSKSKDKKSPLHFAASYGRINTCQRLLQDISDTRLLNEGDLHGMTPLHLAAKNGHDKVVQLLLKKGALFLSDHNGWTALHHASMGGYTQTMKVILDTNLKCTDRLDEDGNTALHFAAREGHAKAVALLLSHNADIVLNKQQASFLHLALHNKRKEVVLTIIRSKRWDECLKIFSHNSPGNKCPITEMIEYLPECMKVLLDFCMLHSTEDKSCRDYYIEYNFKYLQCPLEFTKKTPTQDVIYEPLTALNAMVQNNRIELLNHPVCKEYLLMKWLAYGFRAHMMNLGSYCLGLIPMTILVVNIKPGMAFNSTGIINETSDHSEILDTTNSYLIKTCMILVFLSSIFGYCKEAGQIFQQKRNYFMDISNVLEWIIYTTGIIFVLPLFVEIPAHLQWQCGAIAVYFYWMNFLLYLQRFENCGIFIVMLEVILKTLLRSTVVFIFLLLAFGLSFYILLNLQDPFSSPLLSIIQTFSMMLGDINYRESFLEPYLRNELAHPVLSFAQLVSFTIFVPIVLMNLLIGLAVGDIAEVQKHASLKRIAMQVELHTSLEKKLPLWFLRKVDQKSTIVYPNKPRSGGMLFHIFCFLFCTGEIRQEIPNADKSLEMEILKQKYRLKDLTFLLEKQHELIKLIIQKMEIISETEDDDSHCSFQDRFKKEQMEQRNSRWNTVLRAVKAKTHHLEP
Method: To further examine the specificity of C3, tests were conducted on TRPV1 channels and TRPA1 channels expressed in Kirsten murine sarcoma virus transformed rat kidney (KNRK) cells. KNRK cells were cultured as a monolayer and maintained in Dulbeccos’s Modified Eagles’s Medium (Life Technologies), supplemented with 10% fetal bovine serum (Life Technologies), 100 units/mL penicillin and 100 μg/mL streptomycin, in an incubator of 5% CO2 at 37 °C. After suspension, the cells were coated on cover slips for 12 h, then transiently transfected with cDNA (pc3.1 DNA) for TRPV1 or TRPA1 with Lipofectamine 2000 (Invitrogen) for 24 h, and loaded with Fura-2 AM™ (Molecular Probes) for 40 min at 37 °C. After washing and recovery, KNRK cells were imaged at 340 and 380 nm excitation to detect free calcium influx. An increase of 50% of the 340/380 ratio was considered as the response threshold which were measured under masked conditions for plasmids. Compounds were applied to the bath and calcium response was acquired by an inverted Nikon fluorescence microscope with a CoolSnap HQ2 CCD camera (Photometrics, Tucson, AZ). Data were quantified offline with the Nikon-NIS program.

volunteers = assay: C3 eye drop instilled in volunteers, sensation scores; type: in vivo, human
Method: Eye drops represent ~90% of formulations used for treatment of anterior eye disorders. […] Subjects were asked to rate discomfort, blurring, and coolness sensations, on a scale of 0 (no effect) to 5 (intense effect) at 5, 10, and 15 min after instillation. […] Cooling sensation scores were significant at 5 min (2.6 vs 0.2), but there were not much cooling at 10 (0.8 vs 0.2) or 15 min (0.2 vs 0.2). It appeared as if eye drops are a relatively inefficient method of C3 delivery because the drop splashes in a confined space and the time for the active ingredient to be retained on target receptors is short. Furthermore, the initial period of discomfort is not desirable. To determine if there were other TRPM8 targets on the orbit, we examined the mouse eye with a selective TRPM8-GFP reporter line.

[1] = tested on: patients with dry eye disease; assay: Single application to eyelids of patients with dry eye disease (Expt 1); type: in vivo, human
Method: In the first experiment in which only a single application was tested, 60 subjects were randomly assigned using online software (http://www.graphpad.com/quickcalcs/index.cfm). One group received the vehicle solution (distilled water) (N = 30), and the second group received the TRPM8 agonist C3 dissolved in 2 mg/mL in distilled water (N = 30). Test solutions were kept at room temperature and topically applied to the eyelid skin and margins using an absorbent cotton gauze square (0.4 g rectangle (50 mm × 60 mm), CS-being, Daisan Cotton, Japan). A loading volume of 0.5 mL of solution was used to wet the cotton and the square wiped twice across the closed eyelids (Fig. 5c). The off-loaded volume from the gauze was estimated by weighing the square before and after wiping and found to be 6.5 mg or 6.5 μL. For the C3 solution this is equivalent to 13 μg of C3 for both eyes. This method of delivery targets the edges of the closed eyelids and utilizes the eyelashes as a wick to distribute the solution to the mucocutaneous junctions, conjunctiva, and precorneal film. The lid wiper mechanism of the blink further evenly distributes the solution on to the ocular surface. By using this wiping method, bolus delivery of an eye drop to the corneal surface is avoided.
Subsequently, cooling sensation (every 5 min), TBUT (every 10 min), basal tear secretion (every 20 min), and keratoepitheliopathy (KEP) score (every 30 min) were evaluated for 1 h. In addition, a questionnaire asking the severity of dry eye was used to evaluate the changes in dry eye symptom before and 1 h after application of topical agents. To avoid the effect of topical anesthesia on patient’s sensation, changes in cooling sensation and symptoms of dry eye were evaluated in the right eye, and the remaining examinations including the basal tear secretion measured by Schirmer score with application of topical 0.5% proparacine were performed on the left eye. All examinations were performed by a single masked investigator (K.C.Y) who was not informed of the results of the randomization. All the experiments and the answering the questionnaire were performed in a separate room so that the subjects would not compare the difference of the medications. The room temperature of the study was maintained at 25 °C. Cooling sensation was recorded by subjects using VAS symptom intensity scores on a scale of 0 (no symptom) to 10 (maximum intensity). The severity of dry eye symptoms was graded on a numerical score of 0 to 4 as follows; 0, no symptoms; 1, mild symptoms; 2, moderate symptoms; 3, severe symptoms; and 4, very severe symptoms. TBUT and basal tear secretion (Schirmer score with application of topical 0.5% proparacaine) were measured as previously described. To assess the corneal epithelial damage, the cornea was stained with 1% Fluorescein dye and the severity of KEP was scored by multiplying the area score (0–3) by density score (0–3) of staining.

CCCCCCCCCP(=O)(C(C)C)C(C)C [C3, 1-diisopropylphosphorylnonane]
activation of TRPA1 (calcium response) (human TRPA1): inactive
blurring (volunteers; 0.1 mg/mL eye drop, 5, 10 and 15 min): did not cause significant blurring
Cooling sensation score (0-5) (volunteers; 0.1 mg/mL eye drop, 5 min): 2.6
Cooling sensation score (0-5) (volunteers; 0.1 mg/mL eye drop, 10 min): 0.8
Cooling sensation score (0-5) (volunteers; 0.1 mg/mL eye drop, 15 min): 0.2
duration of cooling after eye drop (volunteers; 0.1 mg/mL eye drop, volume printed as 70 μL): ≤ 10 min
discomfort (volunteers; 0.1 mg/mL, 50 μL eye drop, 10 or 15 min): not at 10 or 15 min
discomfort score (0-5) (volunteers; 0.1 mg/mL, 50 μL eye drop, 5 min, n = 5): 1.6
duration of increase in tear secretion ([1]; 2 mg/mL single application): 60 min
ocular pain or irritation ([1]; 2 mg/mL single application): None of patients reported
basal tear secretion ([1]; 2 mg/mL single application, 20, 40 and 60 min): significantly increased
TBUT ([1]; 2 mg/mL single application, 30 min and 40 min, above baseline): significantly elevated
dry eye symptom score ([1]; 2 mg/mL single application, 1 h, compared to baseline): improved significantly
duration of ocular cooling ([1]; 2 mg/mL single application, n = 30): 46 min and 46 ± 2 min
KEP score ([1]; 2 mg/mL single application, versus vehicle): No differences
